Target: Inosine-5'-monophosphate dehydrogenase 2 (Homo sapiens, UniProt P12268)
Assay: Inhibitory activity against inosine […] monophosphate dehydrogenase type II (IMPDH II)

| Structure (SMILES) | IC50 |
| --- | --- |
| O=C(Nc1ccccc1)Nc1ccc2cnccc2c1Br | 740 nM |
| C=Cc1c(N)ccc2cnccc12 | 820 nM |
| O=C(Nc1ccccc1)Nc1ccc2ccncc2c1 | > 5000 nM |
| CCCc1c(N)ccc2cnccc12 | > 5000 nM |
| Nc1ccc2cnccc2c1Cl | 1200 nM |
| CC(=O)Nc1ccc2cnccc2c1Cl | > 5000 nM |
| Cc1c(N)ccc2cnccc12 | > 5000 nM |
| c1ccc(-c2cnc(Nc3ccc4cncnc4c3)o2)cc1 | 60 nM |
| C=CCc1c(N)ccc2cnccc12 | 3000 nM |
| Cc1cccc(NC(=O)Nc2ccc3cnccc3c2)c1 | 18 nM |
| COc1ccc2cnccc2c1Br | > 5000 nM |
| Cc1ccccc1NC(=O)Nc1ccc2cnccc2c1 | 3800 nM |
| c1ccc(-c2cnc(Nc3ccc4cnccc4c3)o2)cc1 | 5 nM |
| Cc1cccc(NC(=O)Nc2ccc3nnccc3c2)c1 | > 1700 nM |
| CC(=O)Nc1ccc2cnccc2c1Br | > 5000 nM |

The next lines start with the values.

| IC50 | Structure (SMILES) |
| --- | --- |
| 247 nM | Cc1ccc(NC(=O)Nc2ccc3cnccc3c2)cc1 |
| 740 nM | O=C(Nc1ccccc1)Nc1ccc2cnccc2c1 |
| > 5000 nM | Nc1ccc2cnccc2c1N |
| 1660 nM | O=C(Nc1ccccc1)Nc1ccc2cnccc2c1Cl |
| > 5000 nM | Nc1ccc2cnccc2c1 |
| > 5000 nM | Cc1cccc(NC(=O)Nc2ccc3cnncc3c2)c1 |
| > 5000 nM | CC(=O)Nc1ccc2cnccc2c1 |
| 150 nM | Cc1cccc(NC(=O)Nc2ccc3cncnc3c2)c1 |
| 400 nM | O=C(NCc1ccccc1)Nc1ccc2cnccc2c1 |
| 550 nM | Nc1ccc2cnccc2c1Br |

— ChEMBL document CHEMBL1136691, “Identification of novel and potent isoquinoline aminooxazole-based IMPDH inhibitors” (Bioorg Med Chem Lett, 2003)
